Measurements: PubChem BioAssay (NCI)
Several values for one entry are separate records, joined by “and”; a condition that tells them apart may be missing. Equal values may be shown once.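 96-well plates; 48 h exposure; 5 concentrations. Endpoints by linear interpolation between flanking doses. Not reached: highest tested concentration assigned. GI50: concentration for 50% inhibition of growth. The concentration for full growth arrest is given as TGI.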

Key:
Experiment in all cases: NCI tumour cell line growth inhibition, 48 h
TK-10 renal = tested on: TK-10 renal
HCC-2998 colon = tested on: HCC-2998 colon
OVCAR-4 ovarian = tested on: OVCAR-4 ovarian
HOP-92 NSCLC = tested on: HOP-92 NSCLC
OVCAR-5 ovarian = tested on: OVCAR-5 ovarian
HT29 colon = tested on: HT29 colon
EKVX NSCLC = tested on: EKVX NSCLC
MDA-N = tested on: MDA-N
A549 NSCLC = tested on: A549 NSCLC
LOX IMVI melanoma = tested on: LOX IMVI melanoma

| Structure (SMILES) | TGI (TK-10 renal) [µM] | TGI (HCC-2998 colon) [µM] | TGI (OVCAR-4 ovarian) | TGI (HOP-92 NSCLC) | TGI (OVCAR-5 ovarian) [µM] | TGI (HT29 colon) [µM] | TGI (EKVX NSCLC) [µM] | TGI (MDA-N) [µM] | TGI (A549 NSCLC) [µM] | GI50 (MDA-N) [µM] | TGI (LOX IMVI melanoma) [µM] |
| --- | --- | --- | --- | --- | --- | --- | --- | --- | --- | --- | --- |
| C=CCOC(=O)N1[C@H]2C#C/C=C\C#C[C@]3(O)C(=O)C[C@H](C)[C@]24O[C@]43C2=CC(=O)C=CC21OC (some centres undefined) | 63.7 | 77.6 | 84.2 µM | > 100 µM | > 100 | 75.2 | > 100 | > 100 | > 100 | – | – |
| CC[C@]1(O)C[C@H]2CN(CCc3c([nH]c4ccccc34)[C@@](C(=O)OC)(c3cc4c(cc3OC)N(C=O)[C@H]3[C@@](O)(C(=O)OC)[C@H](OC(C)=O)[C@]5(CC)C=CCN6CC[C@]43[C@@H]65)C2)C1 | – | – | 132 µM and 135 µM | 1.19 µM and 3.07 µM and 6.57 µM | – | 27.2 | – | – | – | < 0.001 | – |
| Cc1cccc(C(C)C)c1NC(=O)C(=O)CC(=O)c1sc(Nc2ccccc2Cl)nc1C | > 100 | 32.7 | > 100 µM | 66.2 µM | > 100 | – | > 100 | 54.6 | > 100 | – | > 100 |
| COc1cc(C=O)ccc1Oc1nnnn1-c1ccccc1 | > 100 | – | > 100 µM | > 100 µM | > 100 | > 100 | > 100 | > 100 | > 100 | – | > 100 |
| C/C(CC/C(C)=N/O)=N\O | > 100 | > 100 | > 100 µM | – | > 100 | > 100 | > 100 | > 100 | > 100 | – | > 100 |
| COc1ccc(/C=C2\CCC(C)C3=C(c4ccc(OC)c(OC)c4)C(C#N)=C(N)OC32)cc1OC (centres undefined) | > 100 | – | – | – | 23.6 | – | 8.12 | 12.1 | – | – | 10.9 |
| C=CCn1c(=O)c2ccccc2[n+]2c(C)c(C(=O)OCC)sc12 | > 100 | > 100 | > 100 µM | – | > 100 | > 100 | > 100 | > 100 | > 100 | – | > 100 |
| COc1ccc(C2=CC(c3ccccc3)n3nnnc3N2)cc1 (centres undefined) | – | – | – | – | > 100 | > 100 | – | – | > 100 | – | > 100 |
| O=C(O)c1cc2ccccc2c(N=Nc2ccccc2)c1O | > 100 | – | > 100 µM | > 100 µM | > 100 | 54.8 | 96.6 | 58.4 | 40.1 | – | – |
| Cc1c(NC(=S)NN)c(=O)n(-c2ccccc2)n1C | > 100 | – | > 100 µM | – | > 100 | > 100 | > 100 | > 100 | > 100 | – | > 100 |
| CC1(C)CCC[C@@]2(C)C1CCC1(C)C(CCc3ccoc3)/C(=C/OS(=O)(=O)O)CCC12 (some centres undefined) (tested in a mixture with another compound) | > 100 | > 100 | > 100 µM | 63.2 µM | > 100 | > 100 | > 100 | – | > 100 | – | > 100 |
| ClCCCN(CCCCl)c1ccc(C=Nc2cccc(Cl)c2)cc1 | 26.6 | > 100 | > 79.5 µM | > 100 µM | > 91.4 | > 100 | > 100 | – | > 79.7 | – | > 100 |
| NCCSc1nc2ccccc2s1 | 66.3 | – | > 100 µM | 71 µM | > 100 | > 100 | 80.6 | > 100 | > 100 | – | 90.8 |
| CCCCCCCC1C(C)c2c([nH]c3ccccc23)C2C(=O)N(c3ccc(OC)cc3)C(=O)C21 (centres undefined) | 5.37 | > 10 | 5.8 µM | > 10 µM | > 10 | > 7.4 | > 10 | > 10 | 5.33 | – | – |
| CCC(C)n1c(C)nc2c1C(=O)c1ccccc1C2=O (centres undefined) | > 100 | > 100 | > 100 µM | > 100 µM | – | > 100 | > 100 | – | > 100 | – | > 100 |
| O=C(Nc1nnc(-c2ccccc2)o1)C(SC(=S)N1CCCCC1)c1ccccc1 (centres undefined) | > 100 | – | > 100 µM | – | 82.9 | 70 | 64.2 | 69.9 | 49.5 | – | 18 |
| Cc1ccccc1C(=O)c1c(O)c2c(c(O)c1Br)CCCC2 | 31.7 | 34 | 28.9 µM | 40 µM | 34.6 | 66.6 | 34.3 | – | 54.1 | – | – |
| C/C=C/[C@H]1O[C@@](O)([C@@H](C)[C@H](O)[C@H](C)[C@H]2OC(=O)/C(OC)=C/C(C)=C/[C@@H](C)[C@@H](O)[C@@H](CC)[C@@H](O)[C@H](C)C/C(C)=C/C=C/[C@@H]2OC)C[C@H](OC2CC(O)C(O)C(C)O2)[C@@H]1C (some centres undefined) | 18.9 | 11.8 | 32 µM | 3.69 µM | 15.1 | 8.03 | 11.8 | 12.2 | 12.3 | – | – |
| CCNC(C)Cc1ccccc1 (centres undefined) | > 100 | > 100 | > 100 µM | > 100 µM | > 100 | > 100 | > 100 | – | > 100 | – | > 100 |
| NC(Cc1ccc(S(=O)(=O)O)cc1)C(=O)NC(CCCCNC(=O)NCCCCC(NC(=O)C(N)Cc1ccc(S(=O)(=O)O)cc1)C(=O)NC(Cc1ccc(S(=O)(=O)O)cc1)C(=O)O)C(=O)NC(Cc1ccc(S(=O)(=O)O)cc1)C(=O)O (centres undefined) | > 100 | > 100 | > 100 µM | – | > 100 | > 100 | > 100 | > 100 | > 100 | – | > 100 |
| COc1cc2c[n+](C)c3c4cc(OC)c(OC)cc4c(OC)cc3c2cc1OC | > 100 | > 52.1 | > 69.5 µM | – | > 100 | > 46.7 | > 100 | > 45.9 | > 100 | – | > 76.5 |
| COc1ccc(Oc2cccc(/C=C3/C(=O)Nc4ccccc43)c2)cc1 | 29.9 | 21.3 | 27 µM | 14.3 µM | 31.5 | 12.9 | 25.1 | – | > 100 | – | – |
| CC(=O)OC12/C(=N/O)CCCCCC1c1ccccc12 (centres undefined) | > 100 | – | > 100 µM | – | – | > 100 | > 100 | – | > 100 | – | > 100 |
